Each block holds one compound with its values, some of them ahead of it.
Legend:
Misshapen-like kinase 1 = Misshapen-like kinase 1 (Homo sapiens, UniProt Q8N4C8); assay: Selectivity interaction (KinomeScan (DiscoverX)) EUB0001079a MINK1; conditions: at 1 µM
[1] = target: T1, Dual specificity mitogen-activated protein kinase kinase 6 (Homo sapiens) (UniProt P52564); assay: Selectivity interaction (Kinase panel (KiNativ target engagement assay in Jurkat cells)) EUB0001635a MAP2K6; type: cell-based; conditions: Selectivity number of off-targets 0.0, Selectivity number of targets 233.0, Source Knowledge https://www.sciencedirect.com/science/article/pii/S2451945619300674?via%3Dihub, at 1 µM
T1 sequence (whole entry): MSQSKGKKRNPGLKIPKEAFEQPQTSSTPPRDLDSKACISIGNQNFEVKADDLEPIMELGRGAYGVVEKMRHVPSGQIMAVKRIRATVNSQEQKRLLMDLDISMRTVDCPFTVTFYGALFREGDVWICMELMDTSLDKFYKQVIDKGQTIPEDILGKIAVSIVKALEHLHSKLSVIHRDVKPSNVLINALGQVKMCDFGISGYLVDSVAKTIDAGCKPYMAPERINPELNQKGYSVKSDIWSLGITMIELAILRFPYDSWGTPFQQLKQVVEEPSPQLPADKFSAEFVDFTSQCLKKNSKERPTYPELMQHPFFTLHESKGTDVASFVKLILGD

[2] = target: T2, Serine/threonine-protein kinase D2 (Homo sapiens) (UniProt Q9BZL6); assay: Selectivity interaction (ActivX KiNativ screen (kinase selectivity in THP-1 cell lysates)) EUB0000639a PRKD2; type: subcellular; conditions: lysate, at 0.04 µM
T2 sequence (whole entry): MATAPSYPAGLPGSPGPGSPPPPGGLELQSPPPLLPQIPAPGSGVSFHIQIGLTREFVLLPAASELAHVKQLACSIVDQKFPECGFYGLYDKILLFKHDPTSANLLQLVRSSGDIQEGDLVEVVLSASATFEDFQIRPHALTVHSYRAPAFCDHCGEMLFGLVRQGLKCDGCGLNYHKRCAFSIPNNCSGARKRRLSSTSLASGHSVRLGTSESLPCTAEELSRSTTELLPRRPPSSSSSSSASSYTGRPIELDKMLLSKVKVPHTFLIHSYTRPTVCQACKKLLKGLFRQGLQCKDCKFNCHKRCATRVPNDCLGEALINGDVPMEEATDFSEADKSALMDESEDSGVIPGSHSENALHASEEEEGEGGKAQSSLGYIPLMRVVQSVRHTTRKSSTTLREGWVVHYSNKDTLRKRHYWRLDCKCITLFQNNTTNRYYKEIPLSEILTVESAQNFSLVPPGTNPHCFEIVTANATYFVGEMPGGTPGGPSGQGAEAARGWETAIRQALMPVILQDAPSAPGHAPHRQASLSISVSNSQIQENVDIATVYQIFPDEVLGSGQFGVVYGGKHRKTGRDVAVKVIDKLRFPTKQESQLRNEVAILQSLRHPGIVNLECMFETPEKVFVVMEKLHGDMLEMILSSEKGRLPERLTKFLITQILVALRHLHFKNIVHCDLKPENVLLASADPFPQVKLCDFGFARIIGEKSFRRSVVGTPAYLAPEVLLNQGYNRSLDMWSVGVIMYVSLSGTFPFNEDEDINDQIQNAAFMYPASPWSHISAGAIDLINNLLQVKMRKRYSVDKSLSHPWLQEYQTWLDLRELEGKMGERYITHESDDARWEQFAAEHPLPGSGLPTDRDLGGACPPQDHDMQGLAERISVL

[3] = target: T3, Mitogen-activated protein kinase kinase kinase 3 (Homo sapiens) (UniProt Q99759); assay: Selectivity interaction (ProQinase) EUB0000171b MAP3K3
T3 sequence (whole entry): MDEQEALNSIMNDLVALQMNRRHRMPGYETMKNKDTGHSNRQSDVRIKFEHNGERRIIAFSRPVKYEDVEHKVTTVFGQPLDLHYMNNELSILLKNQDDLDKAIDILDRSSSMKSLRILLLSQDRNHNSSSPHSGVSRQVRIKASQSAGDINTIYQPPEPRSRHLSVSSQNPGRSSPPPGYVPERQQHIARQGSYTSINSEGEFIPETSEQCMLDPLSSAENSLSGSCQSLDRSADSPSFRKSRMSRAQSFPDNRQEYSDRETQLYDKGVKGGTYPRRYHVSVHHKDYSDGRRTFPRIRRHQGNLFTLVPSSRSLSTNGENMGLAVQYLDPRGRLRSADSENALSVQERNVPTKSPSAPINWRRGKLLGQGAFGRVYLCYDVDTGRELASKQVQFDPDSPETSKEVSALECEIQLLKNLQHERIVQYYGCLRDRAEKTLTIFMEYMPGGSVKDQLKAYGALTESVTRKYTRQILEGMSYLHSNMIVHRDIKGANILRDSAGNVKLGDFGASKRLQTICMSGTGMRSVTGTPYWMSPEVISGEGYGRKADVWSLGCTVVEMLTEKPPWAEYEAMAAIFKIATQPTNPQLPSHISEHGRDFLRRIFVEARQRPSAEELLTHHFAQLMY

[4] = target: Receptor tyrosine-protein kinase erbB-4 (Homo sapiens, UniProt Q15303); assay: Selectivity interaction (KinomeScan (DiscoverX)) EUB0000092b ERBB4; conditions: at 10 µM
Receptor tyrosine-protein kinase erbB-4, sequence (Q15303 whole entry): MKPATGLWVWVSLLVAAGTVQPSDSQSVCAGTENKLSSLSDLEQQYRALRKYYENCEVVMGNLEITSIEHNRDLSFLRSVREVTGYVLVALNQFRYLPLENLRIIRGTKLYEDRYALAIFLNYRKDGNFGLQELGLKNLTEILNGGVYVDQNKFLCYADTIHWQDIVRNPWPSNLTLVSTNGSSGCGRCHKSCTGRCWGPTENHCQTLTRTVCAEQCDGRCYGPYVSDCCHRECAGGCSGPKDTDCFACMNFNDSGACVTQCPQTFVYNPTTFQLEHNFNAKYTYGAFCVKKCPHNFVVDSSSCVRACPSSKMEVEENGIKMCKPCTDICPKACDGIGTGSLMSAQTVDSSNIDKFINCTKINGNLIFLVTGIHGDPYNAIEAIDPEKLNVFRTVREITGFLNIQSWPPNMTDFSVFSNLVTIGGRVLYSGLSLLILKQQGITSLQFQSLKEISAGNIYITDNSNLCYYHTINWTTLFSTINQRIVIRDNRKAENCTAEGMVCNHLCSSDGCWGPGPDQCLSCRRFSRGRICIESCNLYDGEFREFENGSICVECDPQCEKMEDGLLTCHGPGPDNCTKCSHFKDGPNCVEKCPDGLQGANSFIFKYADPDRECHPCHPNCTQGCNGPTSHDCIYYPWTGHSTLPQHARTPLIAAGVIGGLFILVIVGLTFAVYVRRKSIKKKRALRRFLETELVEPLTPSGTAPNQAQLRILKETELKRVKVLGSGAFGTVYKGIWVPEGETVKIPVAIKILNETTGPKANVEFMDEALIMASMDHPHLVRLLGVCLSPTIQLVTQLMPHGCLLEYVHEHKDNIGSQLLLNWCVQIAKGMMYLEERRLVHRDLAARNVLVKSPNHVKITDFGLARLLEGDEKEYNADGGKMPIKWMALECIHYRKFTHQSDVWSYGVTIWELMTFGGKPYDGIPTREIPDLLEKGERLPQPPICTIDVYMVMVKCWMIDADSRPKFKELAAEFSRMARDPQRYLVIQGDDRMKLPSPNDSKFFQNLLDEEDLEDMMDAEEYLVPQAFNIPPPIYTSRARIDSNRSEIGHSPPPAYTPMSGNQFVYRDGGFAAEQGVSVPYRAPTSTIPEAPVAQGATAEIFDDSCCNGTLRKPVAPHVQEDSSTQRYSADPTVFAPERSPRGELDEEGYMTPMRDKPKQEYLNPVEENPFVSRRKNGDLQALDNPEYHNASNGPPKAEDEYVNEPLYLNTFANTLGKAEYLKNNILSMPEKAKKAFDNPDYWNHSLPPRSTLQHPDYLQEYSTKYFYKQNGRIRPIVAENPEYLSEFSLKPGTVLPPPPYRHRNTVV

Misshapen-like kinase 1, sequence (Q8N4C8 whole entry, looked up): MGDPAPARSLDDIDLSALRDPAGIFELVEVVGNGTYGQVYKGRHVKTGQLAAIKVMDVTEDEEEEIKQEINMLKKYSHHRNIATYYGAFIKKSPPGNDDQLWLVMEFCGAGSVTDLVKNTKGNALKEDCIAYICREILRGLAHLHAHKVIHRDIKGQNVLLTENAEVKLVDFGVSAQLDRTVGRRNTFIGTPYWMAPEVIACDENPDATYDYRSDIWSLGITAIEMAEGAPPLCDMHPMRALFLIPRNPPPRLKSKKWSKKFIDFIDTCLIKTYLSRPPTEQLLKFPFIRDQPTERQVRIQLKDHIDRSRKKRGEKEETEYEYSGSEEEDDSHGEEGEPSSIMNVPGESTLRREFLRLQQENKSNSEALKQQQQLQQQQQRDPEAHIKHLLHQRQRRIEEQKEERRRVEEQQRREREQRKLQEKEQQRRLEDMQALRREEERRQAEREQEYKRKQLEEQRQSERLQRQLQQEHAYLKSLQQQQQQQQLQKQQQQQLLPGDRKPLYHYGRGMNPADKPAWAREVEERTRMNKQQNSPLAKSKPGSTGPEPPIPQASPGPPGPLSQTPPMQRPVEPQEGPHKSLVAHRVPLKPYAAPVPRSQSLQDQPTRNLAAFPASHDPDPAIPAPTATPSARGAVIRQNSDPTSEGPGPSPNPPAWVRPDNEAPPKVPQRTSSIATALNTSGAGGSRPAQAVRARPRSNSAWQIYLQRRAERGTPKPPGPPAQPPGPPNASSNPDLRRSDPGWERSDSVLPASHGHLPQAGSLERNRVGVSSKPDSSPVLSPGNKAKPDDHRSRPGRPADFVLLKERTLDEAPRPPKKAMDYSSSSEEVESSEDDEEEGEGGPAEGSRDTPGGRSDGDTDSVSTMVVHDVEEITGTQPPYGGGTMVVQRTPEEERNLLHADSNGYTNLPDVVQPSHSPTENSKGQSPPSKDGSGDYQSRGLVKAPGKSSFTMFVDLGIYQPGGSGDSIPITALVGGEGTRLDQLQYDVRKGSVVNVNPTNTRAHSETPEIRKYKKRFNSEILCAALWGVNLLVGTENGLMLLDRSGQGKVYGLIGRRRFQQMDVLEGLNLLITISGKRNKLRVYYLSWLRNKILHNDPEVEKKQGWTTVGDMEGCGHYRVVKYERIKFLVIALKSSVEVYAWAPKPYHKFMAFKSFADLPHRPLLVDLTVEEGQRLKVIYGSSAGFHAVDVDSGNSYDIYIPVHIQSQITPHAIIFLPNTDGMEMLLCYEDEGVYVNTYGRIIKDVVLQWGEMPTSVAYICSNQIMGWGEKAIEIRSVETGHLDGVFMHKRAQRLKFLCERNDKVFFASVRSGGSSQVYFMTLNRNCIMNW

SMILES: Nc1cnc(N2CCc3cc(S(=O)(=O)Nc4c(F)cc(Cl)cc4F)cc(N4CCCC4=O)c32)nc1 [TP-020n]
% of control (Misshapen-like kinase 1): 100%

SMILES: C=CC(=O)Nc1ccc(C(=O)Nc2[nH]nc3c2CN(C(=O)N[C@H](CN(C)C)c2ccccc2)C3(C)C)cc1
% of engagement [1]: 2.8%

% of inhibition [2]: -3.5%
SMILES: CC[C@@H]1[C@H](F)C(=O)N[C@@H]1COc1nccc2cc(C(N)=O)c(OC)cc12 [ZIMLOVISERTIB]

% of control ([3]; at 1 µM): 102% | % of control ([3]; at 5 µM): 103%
SMILES: C=CC(=O)Nc1cccc(C(=O)Nc2ccc(Nc3cc(-c4[nH]c(SC)nc4C)ccn3)cc2)c1

SMILES: CCC(=O)N1CCN(c2ccc(-n3c(=O)ccc4cnc5ccc(-c6cnc7ccccc7c6)cc5c43)cc2C(F)(F)F)CC1
% of control [4]: 100%

Source: ChEMBL document CHEMBL5465560, “Selectivity Literature for EUbOPEN Chemogenomic Library” (2024)
